Results taken from article PMC10786036 (2023).

Legend:
[1] = tested on: TRF2 (RNA, G4) CGGGAGGGCGGGGAGGGC; experiment: fluorescence lifetime; details: 100 mM KCl; 10 mM Tris-HCl pH 7.4; 2 µM TOR-G4; lifetime rises with G4 RNA in totRNA
[2] = tested on: c-MYC (DNA, G4) TGAGGGTGGGTAGGGTGGGTAA; experiment: fluorescence lifetime; details: 100 mM LiCl; 10 mM Tris-HCl pH 7.4; lifetime 1.3 ns lower than in K+

binding [1]: yes
binding [2]: yes
SMILES: COc1ccc2c(c1)N(C)C(=Cc1cc(/C=C/c3ccc(N(C)C)cc3)[n+](C)c3ccccc13)S2
